Measured values reported in the supplement of paper PMC11061612.

Columns and labels:
Assay in all cases: Bliss excess, mean over the matrix (fraction); higher = more synergy
[1] = tested on: DU-145 (Prostate Carcinoma)
Method in brief: (§1)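 Cell lines in DMEM/F12 or RPMI with 10% FBS were plated in 1536-well plates, held 24 hours at 37°C, 5% CO2, then given two-drug dose matrices for 72 hours (DMSO typically 0.2%). Viability was read by CellTiter-Glo 2.0 luminescence and scaled as inhibition from 0 (vehicle wells) to 1 (blank wells). Combination Emax is the second-highest inhibition in the matrix; Bliss excess is observed combination effect minus expected EA + EB − EA·EB, EA and EB being single-agent effects.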

[2] = tested on: EFO-21 (Ovarian Carcinoma)
Method in brief: as §1

[3] = tested on: EJM (Plasma Cell Myeloma)
Method in brief: as §1

[4] = tested on: EW-1 (Ewing's Sarcoma)
Method in brief: as §1

[5] = tested on: HCC1500 (Breast Carcinoma)
Method in brief: as §1

[6] = tested on: HCC1937 (Breast Carcinoma)
Method in brief: as §1

[7] = tested on: KMRC-1 (Kidney Carcinoma)
Method in brief: as §1

[8] = tested on: MDA-MB-453 (Breast Carcinoma)
Method in brief: as §1

[9] = tested on: ME-180 (Cervical Carcinoma)
Method in brief: as §1

[10] = tested on: ML-2 (Acute Myeloid Leukemia)
Method in brief: as §1

[11] = tested on: MOLT-4 (T-Lymphoblastic Leukemia)
Method in brief: as §1

[12] = tested on: MV-4-11 (Acute Myeloid Leukemia)
Method in brief: as §1

[13] = tested on: Mo-T (Other Blood Carcinomas)
Method in brief: as §1

[14] = tested on: NCI-H1092 (Small Cell Lung Carcinoma)
Method in brief: as §1

[15] = tested on: NCI-H1355 (Lung Adenocarcinoma)
Method in brief: as §1

[16] = tested on: NCI-H1993 (Lung Adenocarcinoma)
Method in brief: as §1

[17] = tested on: NCI-H522 (Lung Adenocarcinoma)
Method in brief: as §1

[18] = tested on: OE33 (Esophageal Adenocarcinoma)
Method in brief: as §1

[19] = tested on: SK-N-AS (Neuroblastoma)
Method in brief: as §1

[20] = tested on: SW982 (Other Solid Carcinomas)
Method in brief: as §1

Row | SMILES | Bliss excess [1] | Bliss excess [2] | Bliss excess [3] | Bliss excess [4] | Bliss excess [5] | Bliss excess [6] | Bliss excess [7] | Bliss excess [8] | Bliss excess [9] | Bliss excess [10] | Bliss excess [11] | Bliss excess [12] | Bliss excess [13] | Bliss excess [14] | Bliss excess [15] | Bliss excess [16] | Bliss excess [17] | Bliss excess [18] | Bliss excess [19] | Bliss excess [20]
1 | CCc1c2c(nc3ccc(O)cc13)-c1cc3c(c(=O)n1C2)COC(=O)[C@]3(O)CC [SN-38] + CN(C)CCCOc1ccc(-c2ccc3ncc4c(c3c2)n(C2CCOCC2)c(=O)n4C)cn1 [AZD0156] (first compound max 0.3 µM, 7x7, partner max 1 µM) | -0.109 | -0.0125 | -0.0052 | 0.0608 | 0.0076 | 0.0605 | 0.0671 | -0.0505 | -0.0259 | 0.0256 | 0.069 | 0.0414 | -0.0527 | -0.0472 | -0.0107 | -0.0008 | 0.0294 | 0.0575 | -0.0061 | -0.0208
2 | Cn1cnc2c(F)c(Nc3ccc(Br)cc3Cl)c(C(=O)NOCCO)cc21 [Selumetinib] + C=CCn1c(=O)c2cnc(Nc3ccc(N4CCN(C)CC4)cc3)nc2n1-c1cccc(C(C)(C)O)n1 [AZD1775] (first compound max 10 µM, partner max 1 µM) | 0.0039 | -0.0834 | -0.0146 | -0.0347 | -0.0261 | -0.0357 | -0.0061 | -0.0065 | -0.071 | -0.0186 | -0.02 | 0.0249 | -0.0318 | -0.0961 | -0.0037 | 0.0225 | -0.059 | -0.0911 | 0.0024 | -0.0112
3 | Cn1cnc2c(F)c(Nc3ccc(Br)cc3Cl)c(C(=O)NOCCO)cc21 [Selumetinib] + CC(C)n1c(=O)n(C)c2cnc3cc(F)c(-c4ccc(OCCCN5CCCCC5)nc4)cc3c21 [AZD1390] (first compound max 10 µM, 7x7, partner max 0.3 µM) | -0.0312 | -0.026 | -0.0131 | -0.0419 | -0.0156 | -0.0161 | -0.0685 | -0.0148 | -0.0521 | -0.0506 | 0.0535 | -0.0719 | -0.0339 | -0.0468 | 0.0043 | -0.0741 | -0.0483 | -0.0277 | -0.019 | -0.0484
4 | Cn1cnc2c(F)c(Nc3ccc(Br)cc3Cl)c(C(=O)NOCCO)cc21 [Selumetinib] + CCN(CCO)CCCOc1ccc2c(Nc3cc(CC(=O)Nc4cccc(F)c4)[nH]n3)ncnc2c1 [AZD2811] (first compound max 10 µM, 7x7, partner max 1 µM) | -0.0077 | -0.0877 | 0.0145 | 0.0332 | -0.0123 | 0.016 | -0.0101 | -0.026 | -0.0346 | -0.0371 | 0.0174 | -0.04 | -0.0328 | -0.0083 | 0.0102 | 0.0327 | -0.0359 | -0.0246 | -0.0108 | -0.0933
5 | Cn1cnc2c(F)c(Nc3ccc(Br)cc3Cl)c(C(=O)NOCCO)cc21 [Selumetinib] + C[C@@H]1COCCN1C2=NC(=NC(=C2)C3(CC3)[S@](=N)(=O)C)C4=C5C=CNC5=NC=C4 [AZD6738] (first compound max 10 µM, 7x7, partner max 10 µM) | -0.0441 | -0.0192 | -0.0321 | 0.0014 | -0.0346 | 0.0414 | -0.0303 | -0.05 | -0.0115 | -0.0373 | -0.0181 | -0.0369 | -0.0055 | -0.0466 | -0.0213 | -0.0274 | -0.0653 | -0.018 | -0.0048 | -0.0499
6 | CC(=O)Nc1cccc(-n2c(=O)n(C3CC3)c(=O)c3c(Nc4ccc(I)cc4F)n(C)c(=O)c(C)c32)c1 [Trametinib] + Cc1nc(-c2cn3c(n2)-c2ccc(-c4cnn(C(C)(C)C(N)=O)c4)cc2OCC3)n(C(C)C)n1 [Taselisib] (first compound max 1 µM, 7x7, partner max 10 µM) | 0.0241 | 0.048 | 0.142 | 0.038 | 0.0452 | -0.0125 | 0.0072 | -0.0279 | 0.0713 | 0.197 | 0.186 | 0.27 | 0.142 | -0.0174 | 0.0292 | 0.0556 | 0.0504 | 0.17 | 0.0104 | 0.0666
7 | CC1(C)CCC(CN2CCN(c3ccc(C(=O)NS(=O)(=O)c4ccc(NCC5CCOCC5)c([N+](=O)[O-])c4)c(Oc4cnc5[nH]ccc5c4)c3)CC2)=C(c2ccc(Cl)cc2)C1 [Venetoclax] + C1CN(CCC1(C(=O)N[C@@H](CCO)C2=CC=C(C=C2)Cl)N)C3=NC=NC4=C3C=CN4 [Capivasertib] (first compound max 1 µM, 7x7, partner max 3 µM) | -0.0493 | -0.131 | 0.0067 | -0.0019 | 0.0321 | -0.0227 | -0.028 | -0.0022 | -0.0015 | 0.03 | 0.0315 | 0.0474 | -0.013 | 0.0236 | -0.0379 | -0.001 | -0.0292 | -0.0059 | -0.0237 | -0.0523
8 | CC1(C)CCC(CN2CCN(c3ccc(C(=O)NS(=O)(=O)c4ccc(NCC5CCOCC5)c([N+](=O)[O-])c4)c(Oc4cnc5[nH]ccc5c4)c3)CC2)=C(c2ccc(Cl)cc2)C1 [Venetoclax] + C=CCn1c(=O)c2cnc(Nc3ccc(N4CCN(C)CC4)cc3)nc2n1-c1cccc(C(C)(C)O)n1 [AZD1775] (first compound max 1 µM, partner max 1 µM) | -0.0098 | 0.0233 | -0.0641 | -0.0191 | 0.114 | -0.0744 | -0.0126 | 0.0707 | -0.0001 | -0.0553 | 0.117 | -0.072 | -0.0213 | 0.0018 | 0.0069 | 0.0027 | 0.0162 | -0.0144 | -0.07 | 0.018
9 | CC1(C)CCC(CN2CCN(c3ccc(C(=O)NS(=O)(=O)c4ccc(NCC5CCOCC5)c([N+](=O)[O-])c4)c(Oc4cnc5[nH]ccc5c4)c3)CC2)=C(c2ccc(Cl)cc2)C1 [Venetoclax] + CCN(CCO)CCCOc1ccc2c(Nc3cc(CC(=O)Nc4cccc(F)c4)[nH]n3)ncnc2c1 [AZD2811] (first compound max 1 µM, 7x7, partner max 1 µM) | -0.0375 | -0.0263 | 0.0261 | 0.0317 | 0.0905 | -0.0394 | -0.0456 | -0.0169 | 0.0083 | 0.0167 | -0.0368 | 0.0071 | -0.125 | 0.075 | -0.0219 | -0.0002 | 0.0172 | -0.0188 | -0.0071 | -0.0257
10 | CC1(C)CCC(CN2CCN(c3ccc(C(=O)NS(=O)(=O)c4ccc(NCC5CCOCC5)c([N+](=O)[O-])c4)c(Oc4cnc5[nH]ccc5c4)c3)CC2)=C(c2ccc(Cl)cc2)C1 [Venetoclax] + CN(C)CCCOc1ccc(-c2ccc3ncc4c(c3c2)n(C2CCOCC2)c(=O)n4C)cn1 [AZD0156] (first compound max 1 µM, 7x7, partner max 1 µM) | -0.0261 | -0.0375 | -0.0047 | 0.0002 | 0.0766 | -0.0566 | -0.0466 | -0.0225 | 0.0092 | -0.0728 | 0.0196 | -0.0446 | -0.0469 | -0.0023 | -0.0429 | -0.0681 | -0.0134 | -0.033 | -0.0469 | -0.086
11 | CC1(C)CCC(CN2CCN(c3ccc(C(=O)NS(=O)(=O)c4ccc(NCC5CCOCC5)c([N+](=O)[O-])c4)c(Oc4cnc5[nH]ccc5c4)c3)CC2)=C(c2ccc(Cl)cc2)C1 [Venetoclax] + COc1cc(Nc2ncc3c(n2)-c2ccc(Cl)cc2C(c2c(F)cccc2OC)=NC3)ccc1C(=O)O [Alisertib] (first compound max 1 µM, 7x7, partner max 10 µM) | -0.0117 | -0.0576 | -0.0024 | 0.174 | 0.141 | -0.0852 | -0.012 | -0.0415 | -0.0226 | 0.13 | -0.0938 | 0.0134 | 0.0928 | 0.294 | -0.0205 | -0.029 | 0.0305 | 0.0221 | 0.0947 | -0.0524
12 | CC1(C)CCC(CN2CCN(c3ccc(C(=O)NS(=O)(=O)c4ccc(NCC5CCOCC5)c([N+](=O)[O-])c4)c(Oc4cnc5[nH]ccc5c4)c3)CC2)=C(c2ccc(Cl)cc2)C1 [Venetoclax] + C[C@@H]1COCCN1C2=NC(=NC(=C2)C3(CC3)[S@](=N)(=O)C)C4=C5C=CNC5=NC=C4 [AZD6738] (first compound max 1 µM, 7x7, partner max 10 µM) | -0.0097 | -0.0351 | -0.0176 | -0.0224 | 0.0413 | -0.0587 | -0.0365 | -0.0492 | 0.0165 | 0.0694 | 0.0382 | -0.006 | -0.0373 | 0.0739 | -0.0593 | -0.0366 | -0.0099 | -0.0549 | -0.0222 | -0.031
13 | CC1(C)CCC(CN2CCN(c3ccc(C(=O)NS(=O)(=O)c4ccc(NCC5CCOCC5)c([N+](=O)[O-])c4)c(Oc4cnc5[nH]ccc5c4)c3)CC2)=C(c2ccc(Cl)cc2)C1 [Venetoclax] + C[C@@H](Nc1cc(F)cc(F)c1)c1cc(C(=O)N(C)C)cc2c(=O)cc(N3CCOCC3)oc12 [AZD8186] (first compound max 1 µM, 7x7, partner max 3 µM) | -0.0239 | -0.0441 | 0.0077 | -0.001 | 0.0626 | -0.0179 | -0.0198 | -0.0313 | -0.015 | -0.0292 | -0.0204 | 0.0641 | 0.0015 | 0.0667 | -0.0256 | 0.0036 | -0.0273 | -0.0169 | -0.0347 | -0.0813
14 | CC1(C)CCC(CN2CCN(c3ccc(C(=O)NS(=O)(=O)c4ccc(NCC5CCOCC5)c([N+](=O)[O-])c4)c(Oc4cnc5[nH]ccc5c4)c3)CC2)=C(c2ccc(Cl)cc2)C1 [Venetoclax] + Cc1cc2ncnn2cc1Nc1ncc2c(n1)n(C1CCOCC1)c(=O)n2C [AZD7648] (first compound max 1 µM, 7x7, partner max 10 µM) | -0.0166 | -0.0212 | 0.0292 | -0.008 | 0.0586 | -0.0733 | -0.0514 | -0.0037 | 0.0013 | 0.0057 | 0.0142 | 0.0477 | 0.0426 | 0.0303 | -0.0124 | -0.0583 | -0.0232 | -0.0449 | -0.0485 | 0.0103
